Measurements as given in ChEMBL document CHEMBL1909294, “Translating clinical findings into knowledge in drug safety evaluation--drug induced liver injury prediction system (DILIps)” (PLoS Comput Biol, 2011).

Key:
[1] = tested on: Hepatotoxicity;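 as to HepSE bilirubinemia: bilirubinemia hepatic side effect score drawn from the DILIps training data, a prediction system for drug-induced liver injury; call rule not given here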;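 as to HepSE cholecystitis: Cholecystitis-related hepatic side effect score drawn from the DILIps (drug-induced liver injury prediction) training data set; call rule not given here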;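 as to HepSE elevated liver function tests: hepatic side effect score for raised liver function tests, as recorded in the DILIps training set used for predicting drug-induced liver injury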;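 as to HepSE jaundice: Jaundice-related hepatic side-effect score drawn from the training data of the DILIps (drug-induced liver injury prediction system); call rule not given here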;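 as to HepSE liver fatty: hepatic side effect score for fatty liver, taken from the DILIps training set for predicting drug-induced liver injury; call rule not given here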;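 as to HepSE liver function tests abnormal: hepatic side effect score taken from the DILIps (drug-induced liver injury prediction system) training data, here covering abnormal liver function test findings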
[2] = tested on: Hepatotoxicity; remark: listed apart in the source;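 as to HepSE bilirubinemia: bilirubinemia hepatic side effect score drawn from the DILIps training data, a prediction system for drug-induced liver injury; call rule not given here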;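 as to HepSE cholecystitis: Cholecystitis-related hepatic side effect score drawn from the DILIps (drug-induced liver injury prediction) training data set; call rule not given here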;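 as to HepSE elevated liver function tests: hepatic side effect score for raised liver function tests, as recorded in the DILIps training set used for predicting drug-induced liver injury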;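 as to HepSE jaundice: Jaundice-related hepatic side-effect score drawn from the training data of the DILIps (drug-induced liver injury prediction system); call rule not given here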;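 as to HepSE liver fatty: hepatic side effect score for fatty liver, taken from the DILIps training set for predicting drug-induced liver injury; call rule not given here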;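 as to HepSE liver function tests abnormal: hepatic side effect score taken from the DILIps (drug-induced liver injury prediction system) training data, here covering abnormal liver function test findings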
[3] = tested on: Hepatotoxicity; remark: listed apart in the source;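 as to HepSE cholecystitis: Cholecystitis-related hepatic side effect score drawn from the DILIps (drug-induced liver injury prediction) training data set; call rule not given here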;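 as to HepSE elevated liver function tests: hepatic side effect score for raised liver function tests, as recorded in the DILIps training set used for predicting drug-induced liver injury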;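 as to HepSE jaundice: Jaundice-related hepatic side-effect score drawn from the training data of the DILIps (drug-induced liver injury prediction system); call rule not given here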;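 as to HepSE liver fatty: hepatic side effect score for fatty liver, taken from the DILIps training set for predicting drug-induced liver injury; call rule not given here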;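 as to HepSE liver function tests abnormal: hepatic side effect score taken from the DILIps (drug-induced liver injury prediction system) training data, here covering abnormal liver function test findings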
[4] = tested on: Hepatotoxicity; remark: listed apart in the source;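 as to HepSE cholecystitis: Cholecystitis-related hepatic side effect score drawn from the DILIps (drug-induced liver injury prediction) training data set; call rule not given here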;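 as to HepSE elevated liver function tests: hepatic side effect score for raised liver function tests, as recorded in the DILIps training set used for predicting drug-induced liver injury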;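 as to HepSE jaundice: Jaundice-related hepatic side-effect score drawn from the training data of the DILIps (drug-induced liver injury prediction system); call rule not given here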;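 as to HepSE liver fatty: hepatic side effect score for fatty liver, taken from the DILIps training set for predicting drug-induced liver injury; call rule not given here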;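 as to HepSE liver function tests abnormal: hepatic side effect score taken from the DILIps (drug-induced liver injury prediction system) training data, here covering abnormal liver function test findings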
[5] = tested on: Hepatotoxicity; remark: listed apart in the source
[6] = tested on: Hepatotoxicity; remark: listed apart in the source
[7] = tested on: Hepatotoxicity; remark: listed apart in the source
[8] = tested on: Hepatotoxicity; remark: listed apart in the source
[9] = tested on: Hepatotoxicity; remark: listed apart in the source
[10] = tested on: Hepatotoxicity; remark: listed apart in the source
[11] = tested on: Hepatotoxicity; remark: listed apart in the source
[12] = tested on: Hepatotoxicity; remark: listed apart in the source
[13] = tested on: Hepatotoxicity; remark: listed apart in the source
[14] = tested on: Hepatotoxicity; remark: listed apart in the source

Structure (SMILES)	HepSE_jaundice [1]	HepSE_liver function tests abnormal [2]	HepSE_elevated liver function tests [3]	HepSE_liver fatty [4]	HepSE_cholecystitis [5]	HepSE_bilirubinemia [6]	HepSE_liver disease [7]	HepSE_hepatic necrosis [8]	HepSE_hepatic failure [9]	HepSE_cholelithiasis [10]	HepSE_Combined Scores [11]	HepSE_hepatomegaly [12]	HepSE_hepatitis [13]	HepSE_cirrhosis [14]
CCOc1nc2cccc(C(=O)O)c2n1Cc1ccc(-c2ccccc2-c2nnn[nH]2)cc1	0	0	0	0	0	0	0	0	0	1	2	0	1	0
CCCc1nc2c(C)cc(-c3nc4ccccc4n3C)cc2n1Cc1ccc(-c2ccccc2C(=O)O)cc1	0	0	0	0	0	0	1	0	0	0	1	0	0	0
FC(F)OC(F)C(F)(F)F (configuration not stated)	0	0	0	0	0	0	0	0	1	0	2	0	1	0
CC(=O)N[C@H]1[C@H](OCCCO)OC(C(=O)O)=C[C@@H]1O	0	0	0	0	0	0	0	0	0	0	0	0	0	0
CCCCc1nc(N)[se]c1CCC	0	0	0	0	0	0	0	0	0	0	0	0	0	0
FC(F)OC(F)(F)C(F)Cl (configuration not stated)	0	0	0	0	0	0	0	1	1	0	2	0	0	0
CNS(=O)(=O)CCc1ccc2[nH]cc(C3CCN(C)CC3)c2c1	0	1	0	0	0	0	0	0	0	0	1	0	0	0
C[C@@H](O)[C@H]1C(=O)N2C(C(=O)O)=C(S[C@@H]3CN[C@H](C(=O)Nc4cccc(C(=O)O)c4)C3)[C@H](C)[C@H]12	1	0	0	0	1	0	1	0	0	1	4	0	0	0
CCCCC[C@](C)(O)/C=C/[C@@H]1[C@@H](C/C=C/CCCC(=O)O)[C@@H](O)C[C@H]1O	0	0	0	0	0	0	0	0	0	0	0	0	0	0
CCCc1nn(C)c2c(=O)[nH]c(-c3cc(S(=O)(=O)N4CCN(C)CC4)ccc3OCC)nc12	0	1	0	0	0	0	0	0	0	0	1	0	0	0
CC(N)Cc1c[nH]c2ccccc12 (configuration not stated)	0	0	0	0	0	0	0	0	0	0	0	0	0	0
CCOC(=O)[C@H](CCc1ccccc1)N[C@@H](C)C(=O)N1CCC[C@H]1C(=O)O	1	0	0	0	0	0	0	0	1	0	3	0	1	0
Cc1c(O)cccc1C(=O)N[C@@H](CSc1ccccc1)[C@H](O)CN1C[C@H]2CCCC[C@H]2C[C@H]1C(=O)NC(C)(C)C	1	1	0	0	0	1	0	0	0	0	4	0	1	0
